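GI50: concentration for 50% inhibition of growth. At the TGI there is no net growth.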
Columns and labels:
Experiment in all cases: NCI tumour cell line growth inhibition, 384-well format
786-0 renal = tested on: 786-0 renal
A498 renal = tested on: A498 renal
A549 NSCLC = tested on: A549 NSCLC
ACHN renal = tested on: ACHN renal
BT-549 breast = tested on: BT-549 breast
CAKI-1 renal = tested on: CAKI-1 renal
CCRF-CEM leukemia = tested on: CCRF-CEM leukemia
COLO 205 colon = tested on: COLO 205 colon
DU-145 prostate = tested on: DU-145 prostate
EKVX NSCLC = tested on: EKVX NSCLC
HCC-2998 colon = tested on: HCC-2998 colon
HCT-116 colon = tested on: HCT-116 colon
HCT-15 colon = tested on: HCT-15 colon
HL-60(TB) leukemia = tested on: HL-60(TB) leukemia
HOP-62 NSCLC = tested on: HOP-62 NSCLC
HOP-92 NSCLC = tested on: HOP-92 NSCLC
HS 578T breast = tested on: HS 578T breast
HT29 colon = tested on: HT29 colon
IGROV1 ovarian = tested on: IGROV1 ovarian
K-562 leukemia = tested on: K-562 leukemia
KM12 colon = tested on: KM12 colon
LOX IMVI melanoma = tested on: LOX IMVI melanoma
M14 melanoma = tested on: M14 melanoma
MALME-3M melanoma = tested on: MALME-3M melanoma
MCF7 breast = tested on: MCF7 breast
MDA-MB-231 breast = tested on: MDA-MB-231 breast
MDA-MB-435 melanoma = tested on: MDA-MB-435 melanoma
MDA-MB-468 breast = tested on: MDA-MB-468 breast
MOLT-4 leukemia = tested on: MOLT-4 leukemia
NCI-H226 lung = tested on: NCI-H226 lung
NCI-H23 lung = tested on: NCI-H23 lung
NCI-H322M lung = tested on: NCI-H322M lung
NCI-H460 NSCLC = tested on: NCI-H460 NSCLC
NCI-H522 lung = tested on: NCI-H522 lung
OVCAR-3 ovarian = tested on: OVCAR-3 ovarian
OVCAR-4 ovarian = tested on: OVCAR-4 ovarian
OVCAR-5 ovarian = tested on: OVCAR-5 ovarian
OVCAR-8 ovarian = tested on: OVCAR-8 ovarian
PC-3 prostate = tested on: PC-3 prostate
RPMI-8226 leukemia = tested on: RPMI-8226 leukemia
RXF 393 renal = tested on: RXF 393 renal
SF-268 CNS = tested on: SF-268 CNS
SF-295 CNS = tested on: SF-295 CNS
SF-539 CNS = tested on: SF-539 CNS
SK-MEL-2 melanoma = tested on: SK-MEL-2 melanoma
SK-MEL-28 melanoma = tested on: SK-MEL-28 melanoma
SK-MEL-5 melanoma = tested on: SK-MEL-5 melanoma
SK-OV-3 ovarian = tested on: SK-OV-3 ovarian
SN12C renal = tested on: SN12C renal
SNB-19 CNS = tested on: SNB-19 CNS
SNB-75 CNS = tested on: SNB-75 CNS
SR leukemia = tested on: SR leukemia
SW-620 colon = tested on: SW-620 colon
T-47D breast = tested on: T-47D breast
TK-10 renal = tested on: TK-10 renal
U251 glioblastoma = tested on: U251 glioblastoma
UACC-257 melanoma = tested on: UACC-257 melanoma
UACC-62 melanoma = tested on: UACC-62 melanoma
UO-31 renal = tested on: UO-31 renal

Question: Which results are given for `COc1cc([C@@H]2c3cc4c(cc3[C@@H](OC3OC5COC(C)OC5C(O)C3O)[C@H]3COC(=O)[C@H]23)OCO4)cc(OC)c1O` (stereo not given in full)?
Answer: GI50 ([…]-0 renal): 1590 nM; TGI (786-0 renal): 7560 nM; GI50 (A498 renal): 2000 nM; TGI (A498 renal): 19000 nM; GI50 (A549 NSCLC): 1220 nM; TGI (A549 NSCLC): > 47000 nM; GI50 (ACHN renal): 1800 nM; TGI (ACHN renal): 10300 nM; GI50 (BT-549 breast): 877 nM; TGI (BT-549 breast): 4740 nM; GI50 (CAKI-1 renal): 1610 nM; TGI (CAKI-1 renal): > 41000 nM; GI50 (CCRF-CEM leukemia): 63.8 nM; TGI (CCRF-CEM leukemia): 200 nM; GI50 (COLO 205 colon): 433 nM; TGI (COLO 205 colon): 10600 nM; GI50 (DU-145 prostate): 1520 nM; TGI (DU-145 prostate): 5250 nM; GI50 (EKVX NSCLC): 11300 nM; TGI (EKVX NSCLC): > 43600 nM; GI50 (HCC-2998 colon): 1820 nM; TGI (HCC-2998 colon): 4150 nM; GI50 (HCT-116 colon): 560 nM; TGI (HCT-116 colon): 25900 nM; GI50 (HCT-15 colon): 2010 nM; TGI (HCT-15 colon): 13600 nM; GI50 (HL-60(TB) leukemia): 21.5 nM; TGI (HL-60(TB) leukemia): 49.2 nM; GI50 (HOP-62 NSCLC): 747 nM; TGI (HOP-62 NSCLC): 2510 nM; GI50 (HOP-92 NSCLC): 2460 nM; TGI (HOP-92 NSCLC): > 43100 nM; GI50 (HS 578T breast): 463 nM; TGI (HS 578T breast): 4820 nM; GI50 (HT29 colon): 2280 nM; TGI (HT29 colon): 7300 nM; GI50 (IGROV1 ovarian): 4270 nM; TGI (IGROV1 ovarian): > 37600 nM; GI50 (K-562 leukemia): 910 nM; TGI (K-562 leukemia): 6360 nM; GI50 (KM12 colon): 1680 nM; TGI (KM12 colon): 7910 nM; GI50 (LOX IMVI melanoma): 1660 nM; TGI (LOX IMVI melanoma): 15900 nM; GI50 (M14 melanoma): 1320 nM; TGI (M14 melanoma): 6640 nM; GI50 (MALME-3M melanoma): 6150 nM; TGI (MALME-3M melanoma): 43500 nM; GI50 (MCF7 breast): 716 nM; GI50 (MDA-MB-231 breast): 1880 nM; TGI (MDA-MB-231 breast): 4620 nM; GI50 (MDA-MB-435 melanoma): 3960 nM; TGI (MDA-MB-435 melanoma): 20400 nM; GI50 (MDA-MB-468 breast): 1130 nM; TGI (MDA-MB-468 breast): 2780 nM; GI50 (MOLT-4 leukemia): 17.6 nM; TGI (MOLT-4 leukemia): 38.9 nM; GI50 (NCI-H226 lung): 2480 nM; TGI (NCI-H226 lung): > 37200 nM; GI50 (NCI-H23 lung): 809 nM; TGI (NCI-H23 lung): 4370 nM; GI50 (NCI-H322M lung): 29100 nM; TGI (NCI-H322M lung): > 96700 nM; GI50 (NCI-H460 NSCLC): 91.5 nM; TGI (NCI-H460 NSCLC): 7610 nM; GI50 (NCI-H522 lung): 1210 nM; TGI (NCI-H522 lung): 7350 nM; GI50 (OVCAR-3 ovarian): 2640 nM; TGI (OVCAR-3 ovarian): 13800 nM; GI50 (OVCAR-4 ovarian): 39900 nM; GI50 (OVCAR-5 ovarian): 3370 nM; TGI (OVCAR-5 ovarian): 13800 nM; GI50 (OVCAR-8 ovarian): 1530 nM; TGI (OVCAR-8 ovarian): 10300 nM; GI50 (PC-3 prostate): 20400 nM; GI50 (RPMI-8226 leukemia): 36.1 nM; TGI (RPMI-8226 leukemia): 564 nM; GI50 (RXF 393 renal): 9620 nM; TGI (RXF 393 renal): 38300 nM; GI50 (SF-268 CNS): 1360 nM; TGI (SF-268 CNS): 6870 nM; GI50 (SF-295 CNS): 851 nM; TGI (SF-295 CNS): 3010 nM; GI50 (SF-539 CNS): 976 nM; TGI (SF-539 CNS): 4380 nM; GI50 (SK-MEL-2 melanoma): 4150 nM; TGI (SK-MEL-2 melanoma): 8270 nM; GI50 (SK-MEL-28 melanoma): 2610 nM; TGI (SK-MEL-28 melanoma): 11400 nM; GI50 (SK-MEL-5 melanoma): 370 nM; TGI (SK-MEL-5 melanoma): 1710 nM; GI50 (SK-OV-3 ovarian): 2940 nM; TGI (SK-OV-3 ovarian): 14600 nM; GI50 (SN12C renal): 1280 nM; TGI (SN12C renal): 5720 nM; GI50 (SNB-19 CNS): 1080 nM; TGI (SNB-19 CNS): > 23100 nM; GI50 (SNB-75 CNS): 1360 nM; TGI (SNB-75 CNS): 6630 nM; GI50 (SR leukemia): 16.1 nM; TGI (SR leukemia): 49.4 nM; GI50 (SW-620 colon): 441 nM; TGI (SW-620 colon): 5580 nM; GI50 (T-47D breast): 1040 nM; TGI (T-47D breast): > 95300 nM; GI50 (TK-10 renal): 2880 nM; TGI (TK-10 renal): 11300 nM; GI50 (U251 glioblastoma): 533 nM; TGI (U251 glioblastoma): 5050 nM; GI50 (UACC-257 melanoma): 16600 nM; TGI (UACC-257 melanoma): > 75900 nM; GI50 (UACC-62 melanoma): 1330 nM; TGI (UACC-62 melanoma): 16600 nM; GI50 (UO-31 renal): 22200 nM; TGI (UO-31 renal): > 77900 nM

— PubChem BioAssay (NCI)
